Values after ≈ are worked out from the molar mass of the structure shown.
Tests used:
[1] = test system: S. aureus ATCC 6538; test: MIC, twofold microdilution, standard strain; type: cell-based, Staphylococcus aureus; settings: Staphylococcus aureus, ATCC6538; standard strain, 18 h
[2] = test system: S. epidermidis 4341; test: MIC, twofold microdilution, clinical strain; type: cell-based; settings: Staphylococcus epidermidis, 18 h
[3] = test system: S. aureus 180; test: MIC, twofold microdilution, clinical strain; type: cell-based; settings: Staphylococcus aureus, 18 h
[4] = test system: S. epidermidis KR4243/1; test: MIC, twofold microdilution, clinical strain; type: cell-based; settings: Staphylococcus epidermidis, 18 h
[5] = test system: S. aureus ATCC 29213; test: MIC, twofold microdilution, standard strain; type: cell-based; settings: Staphylococcus aureus, ATCC29213, 18 h
[6] = test system: K. pneumoniae 510; test: MIC, twofold microdilution, clinical strain; type: cell-based, Klebsiella pneumoniae; settings: Klebsiella pneumoniae, 510; clinical strain, 18 h
[7] = test system: E. coli 520; test: MIC, twofold microdilution, clinical strain; type: cell-based; settings: Escherichia coli, 18 h
[8] = test system: clinical bacterial strains; test: MIC, clinical isolates as groups of strains; type: cell-based; settings: for MIC: clinical strains, read-out: MIC against selected E. coli and E. cloacae strains
[9] = test system: P. aeruginosa 659; test: MIC, twofold microdilution, clinical strain; type: cell-based; settings: Pseudomonas aeruginosa, 18 h
[10] = test system: E. cloacae 8; test: MIC, twofold microdilution, clinical strain; type: cell-based, Escherichia cloacae; settings: Enterobacter cloacae, 8; clinical strain, 18 h
[11] = test system: S. pasteuri KR 4358; test: MIC, twofold microdilution, clinical strain; type: cell-based; settings: Staphylococcus pasteuri, KR4358, 18 h
[12] = test system: E. coli ATCC 25922; test: MIC, twofold microdilution, standard strain; type: cell-based, Escherichia coli; settings: Escherichia coli, ATCC25922; standard strain, 18 h
[13] = test system: M. tuberculosis H37Rv; test: Tuberculostatic activity, Microplate Alamar Blue Assay (MIC); type: cell-based, Mycobacterium tuberculosis; settings: Mycobacterium tuberculosis, H37RV; MABA; read-out: MIC M. tuberculosis H37Rv
[14] = test system: K. pneumoniae 28; test: MIC, twofold microdilution, clinical strain; type: cell-based; settings: Klebsiella pneumoniae, 18 h
[15] = test system: E. coli 600; test: MIC, twofold microdilution, clinical strain; type: cell-based, Escherichia coli; settings: Escherichia coli, 600, 18 h
[16] = test system: P. aeruginosa ATCC 15442; test: MIC, twofold microdilution, standard strain; type: cell-based, Pseudomonas aeruginosa; settings: Pseudomonas aeruginosa, ATCC15442; standard strain, 18 h
[17] = test system: S. epidermidis ATCC 12228; test: MIC, twofold microdilution, standard strain; type: cell-based; settings: Staphylococcus epidermidis, ATCC12228, 18 h
[18] = test system: S. aureus 5595; test: MIC, twofold microdilution, clinical strain; type: cell-based; settings: Staphylococcus aureus, 18 h
[19] = test system: S. aureus NCTC 4163; test: MIC, twofold microdilution, standard strain; type: cell-based; settings: Staphylococcus aureus, NCTC4163, 18 h
[20] = test system: S. aureus T5595; test: MIC, twofold microdilution, clinical strain; type: cell-based, Staphylococcus aureus; settings: for MIC: Staphylococcus aureus, T5595, 18 h
[21] = test system: S. epidermidis ATCC 35984; test: MIC, twofold microdilution, standard strain; type: cell-based; settings: Staphylococcus epidermidis, ATCC35984, 18 h
[22] = test system: S. aureus ATCC 25923; test: MIC, twofold microdilution, standard strain; type: cell-based; settings: Staphylococcus aureus, ATCC25923, 18 h
[23] = test system: S. epidermidis 5253; test: MIC, twofold microdilution, clinical strain; type: cell-based, Staphylococcus epidermidis; settings: for MIC: Staphylococcus epidermidis, 5253, 18 h
[24] = test system: Staphylococci (standard strains); test: MIC, standard Gram-positive strains as a panel; type: cell-based, S. aureus, S. epidermidis; settings: standard Gram-positive strains of Table 1; read-out: MIC toward standard Staphylococci (range over strains)
[25] = test system: E. coli 951; test: MIC, twofold microdilution, clinical strain; type: cell-based; settings: Escherichia coli, 18 h
[26] = test system: M. tuberculosis Spec. 192; test: Tuberculostatic activity, Microplate Alamar Blue Assay (MIC); type: cell-based; settings: Mycobacterium tuberculosis, MABA, read-out: MIC M. tuberculosis Spec. 192 (sensitive to tuberculostatics)
[27] = MTT assay, cytotoxic activity; type: cell-based; settings: human, HaCaT cells (immortal keratinocytes); MTT, 72 h, normal cell line; read-out: IC50 HaCaT
Description: (§1) Cells were seeded in 6 mL medium in a tissue culture flask (50 mL) in a 37 °C/5% CO2 humidified incubator. […] MTT analysis was performed according to a previous study.[59] Untreated cells were used as controls. Cell absorbance results were inserted into the formula for the relative MTT level (%). It allows to calculate the viability of cells under the influence of the tested compounds. Cell viability was expressed as the percentage of MTT reduction in cells treated with tested compounds compared to the control sample. The relative MTT level was calculated using the formula [100%] = A/B × 100% where A—the test sample absorbance and B—the control sample absorbance.

[28] = test system: S. aureus T5591; test: MIC, twofold microdilution, clinical strain; type: cell-based, Staphylococcus aureus; settings: for MIC: Staphylococcus aureus, T5591, 18 h
[29] = test system: P. aeruginosa 37; test: MIC, twofold microdilution, clinical strain; type: cell-based; settings: Pseudomonas aeruginosa, 18 h
[30] = test system: PC3 cells; test: MTT assay, cytotoxic activity; type: cell-based, human; settings: Homo sapiens, PC-3, 72 h, MTT, 72 h
Description: as §1, with “Metastatic prostate cancer (PC3) and human immortal keratinocyte (HaCaT) cell lines were purchased from the American Type Culture Collection (ATCC, Rockville, MD, USA) and cultured in MEM (minimal essential medium, Thermo Sci, USA), RPMI 1640 (Roswell Park Memorial Institute, Biowest SAS, France), and DMEM (Dulbecco’s Modified Eagle’s Medium, Biowest SAS, France). Cells” for “Cells”

Compound | MIC [1] [µg/mL] | MIC [2] [µg/mL] | MIC [3] [µg/mL] | MIC [4] [µg/mL] | MIC [5] [µg/mL] | MIC [6] [µg/mL] | MIC [7] [µg/mL] | MIC [9] [µg/mL] | MIC [10] [µg/mL] | MIC [11] [µg/mL] | MIC [12] [µg/mL] | MIC [13] [µg/mL] | MIC [14] [µg/mL] | MIC [15] [µg/mL] | MIC [16] [µg/mL] | MIC [17] [µg/mL] | MIC [18] [µg/mL] | MIC [19] [µg/mL] | MIC [20] [µg/mL] | MIC [21] [µg/mL] | other results
O=C(O)c1cn(C2CC2)c2cc(N3CCN(C(=O)CCCCCBr)CC3)c(F)cc2c1=O [Compound 12, 7-[4-(6-Bromohexanoyl)-piperazin-1-yl]-1-cyclopropyl-6-fluoro-4-oxo-1,4-dihydro-quinoline-3-carboxylic Acid] | 1.6 (≈ 3.15 µM) | 64 (≈ 126 µM) | 0.5 (≈ 0.984 µM) | 0.8 (≈ 1.57 µM) | 1.6 (≈ 3.15 µM) | > 25.6 | 0.8 (≈ 1.57 µM) | > 25.6 | > 25.6 | 0.8 (≈ 1.57 µM) | 1.6 (≈ 3.15 µM) | 1 (≈ 1.97 µM) | > 25.6 | 0.4 (≈ 0.787 µM) | 25.6 (≈ 50.4 µM) | 1.6 (≈ 3.15 µM) | 0.5 (≈ 0.984 µM) | 0.8 (≈ 1.57 µM) | 0.8 (≈ 1.57 µM) | 0.8 (≈ 1.57 µM) | MIC [8]: 0.1 to 0.8 µg/mL (≈ 0.197 to 1.57 µM); MIC [22]: 1.6 µg/mL (≈ 3.15 µM); MIC [23]: > 25.6 µg/mL; MIC [24]: 0.8 to 1.6 µg/mL (≈ 1.57 to 3.15 µM); MIC [25]: > 25.6 µg/mL; MIC [26]: 1 µg/mL (≈ 1.97 µM); IC50 at 72 h [27]: > 100 µM; MIC [28]: 0.8 µg/mL (≈ 1.57 µM); MIC [29]: > 25.6 µg/mL; IC50 [30]: 29.7 ± 5 µM
O=C(O)c1cn(C2CC2)c2cc(N3CCN(C(=O)CC(F)(F)F)CC3)c(F)cc2c1=O [Compound 14, 7-[4-(3,3,3-Trifluoropropionyl)-piperazin-1-yl]-1-cyclopropyl-6-fluoro-4-oxo-1,4-dihydro-quinoline-3-carboxylic Acid] | 0.4 (≈ 0.906 µM) | > 25.6 | 0.5 (≈ 1.13 µM) | 0.1 (≈ 0.227 µM) | 0.4 (≈ 0.906 µM) | > 25.6 | 0.4 (≈ 0.906 µM) | > 25.6 | 2 (≈ 4.53 µM) | 0.2 (≈ 0.453 µM) | 0.8 (≈ 1.81 µM) | 64 (≈ 145 µM) | > 25.6 | 0.8 (≈ 1.81 µM) | > 25.6 | 0.4 (≈ 0.906 µM) | 0.5 (≈ 1.13 µM) | 0.4 (≈ 0.906 µM) | 0.1 to 0.2 (≈ 0.227 to 0.453 µM) | 0.4 (≈ 0.906 µM) | times more powerful than CP ([8]; S. aureus T5595 and T5591): 1.25–2.5 times; MIC [8]: 0.1 to 0.8 µg/mL (≈ 0.227 to 1.81 µM); MIC S. aureus T5595 ([20]; 18 h): 0.2 µg/mL (≈ 0.453 µM); MIC [22]: 0.4 µg/mL (≈ 0.906 µM); MIC [23]: > 25.6 µg/mL; MIC [25]: > 25.6 µg/mL; MIC [26]: 64 µg/mL (≈ 145 µM); IC50 at 72 h [27]: > 100 µM; MIC S. aureus T5591 ([28]; 18 h): 0.2 µg/mL (≈ 0.453 µM); MIC [28]: 0.1 to 0.2 µg/mL (≈ 0.227 to 0.453 µM); MIC [29]: > 25.6 µg/mL; IC50 [30]: 63.4 ± 5.3 µM
O=C(O)c1cn(C2CC2)c2cc(N3CCN(CC(=O)N4CCN(c5cc6c(cc5F)c(=O)c(C(=O)O)cn6C5CC5)CC4)CC3)c(F)cc2c1=O [Compound 17, CP–Acetyl–CP Dimer] | 0.2 (≈ 0.285 µM) | 25.6 (≈ 36.4 µM) | 1.6 (≈ 2.28 µM) | 0.2 (≈ 0.285 µM) | 0.8 (≈ 1.14 µM) | > 25.6 | 3.2 (≈ 4.55 µM) | > 25.6 | 25.6 (≈ 36.4 µM) | 1.6 (≈ 2.28 µM) | 6.4 (≈ 9.11 µM) | 32 (≈ 45.5 µM) | > 25.6 | 12.8 (≈ 18.2 µM) | > 25.6 | 0.2 (≈ 0.285 µM) | 0.4 (≈ 0.569 µM) | 0.4 (≈ 0.569 µM) | 0.8 (≈ 1.14 µM) | 0.4 (≈ 0.569 µM) | MIC [22]: 1.6 µg/mL (≈ 2.28 µM); MIC S. epidermidis 5253 ([23]; 18 h): 25.6 µg/mL (≈ 36.4 µM); MIC [23]: 12.8 to 25.6 µg/mL (≈ 18.2 to 36.4 µM); MIC [24]: 0.2 to 1.6 µg/mL (≈ 0.285 to 2.28 µM); MIC [25]: > 25.6 µg/mL; MIC [26]: 32 µg/mL (≈ 45.5 µM); IC50 at 72 h [27]: 41.3 ± 5.2 µM; MIC [28]: 1.6 µg/mL (≈ 2.28 µM); MIC [29]: > 25.6 µg/mL; IC50 [30]: 88.4 ± 10.6 µM
O=C(O)c1cn(C2CC2)c2cc(N3CCN(CCCCCC(=O)N4CCN(c5cc6c(cc5F)c(=O)c(C(=O)O)cn6C5CC5)CC4)CC3)c(F)cc2c1=O [Compound 20, CP–Hexanoyl–CP Dimer] | 1.6 (≈ 2.11 µM) | > 25.6 | 1 (≈ 1.32 µM) | 0.8 (≈ 1.05 µM) | 1.6 (≈ 2.11 µM) | > 25.6 | 12.8 (≈ 16.9 µM) | > 25.6 | > 25.6 | 0.8 (≈ 1.05 µM) | 6.4 (≈ 8.43 µM) | 32 (≈ 42.2 µM) | > 25.6 | 12.8 (≈ 16.9 µM) | > 25.6 | 1.6 (≈ 2.11 µM) | 1 (≈ 1.32 µM) | 1.6 (≈ 2.11 µM) | 0.8 (≈ 1.05 µM) | 1.6 (≈ 2.11 µM) | MIC [22]: 1.6 µg/mL (≈ 2.11 µM); MIC [23]: > 25.6 µg/mL; MIC [25]: > 25.6 µg/mL; MIC [26]: 16 µg/mL (≈ 21.1 µM); IC50 at 72 h [27]: 89.5 ± 5.9 µM; MIC [28]: 0.8 µg/mL (≈ 1.05 µM); MIC [29]: > 25.6 µg/mL; IC50 [30]: 69.9 ± 7.2 µM

Reference: article PMC10233829 (ACS Omega, 2023)
